pEC50: −log10 of the molar value. Inconclusive results are not listed. The source made the active and inactive calls.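 How the source made its calls: active means EC50 no greater than ten times the top concentration tested; inconclusive means flat fit with inhibition between 30% and 70%, or an invalid poor-quality fit; inactive means EC50 beyond ten times the top concentration.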

In the test the test system is S. cerevisiae GRE-lacZ reporter, Hsp90 function, luminescence. Nature of the test: GRE-lacZ reporter signal reduction in yeast, SAR follow-up, mechanism study for C. albicans Hsp90 inhibitor project, S. cerevisiae, luminescence (AID 434938).
As to `O=C(Nc1nc(-c2ccccn2)cs1)c1ccc(Br)s1`, the pEC50 is 5.32.

In the case of `Cc1ccc(Nc2nc(N)c([N+](=O)[O-])c(N3CCC(C)CC3)n2)cc1C`, the negative logarithm of the EC50 (pEC50) is 5.00.

Consider `O=C(Nc1nnc(CCc2ccccc2)s1)c1ccco1`, for which the EC50 is > 26 µM (inactive).

Regarding `CCOC(=O)c1c(-c2ccccc2Cl)cn2ccccc12`, the pEC50 is 4.78.

As for `O=C(Nc1sc2c(c1C(=O)c1ccc(Cl)cc1)CCCC2)c1cccnc1`, the pEC50 is 4.82.

With `Cc1ccc(/C=C/C(=O)c2ccccc(=O)c2O)cc1C`, the pEC50 was 5.07.

In the case of `COc1ccc(-n2nc(C(=O)NCC(=O)N3CCN(c4ccccc4)CC3)c3ccccc3c2=O)c(OC)c1`, the EC50 is > 26 µM (inactive).

With `O=c1c2cc(Br)ccc2nc(-c2cccc(C(F)(F)F)c2)n1O`, the pEC50 is 4.99.

Take `Cc1ccc(C(=O)c2coc3c2C(=O)C(=O)c2ccccc2-3)cc1`: the pEC50 is 5.12.

As for `O=C(Nc1nnc(-c2ccc3c(c2)CCCC3)o1)c1ccc(Cl)cc1Cl`, the pEC50 is 5.67.

Take `O=C(Oc1c(Cl)cc(Cl)c2cccnc12)c1cccs1`: the pEC50 was 4.92.

With `COc1ccc(-c2nnc(NC(=O)c3ccc(F)cc3)o2)cc1`, the EC50 is > 26 µM (inactive).

Consider `CCc1ccc2c(c1)/C(=C/C(=O)c1cccs1)C(=O)N2`, for which the pEC50 was 5.54.

Consider `Clc1ccc2c(c1)C(c1cccs1)=NNC(c1cccnc1)=N2`, for which the pEC50 is 4.57.

Regarding `O=C(Nc1nnc(SCc2ccc(Cl)cc2)s1)c1ccc2ccccc2n1`, the EC50 was > 26 µM (inactive).

In the case of `CC(C)COCc1ccc(O)c2ncccc12`, the EC50 is > 26 µM (inactive).

As to `CCCC(=O)NC(c1ccccc1)c1ccc2cccnc2c1O` (centres undefined), the EC50 is > 26 µM (inactive).

With `Cc1ccc(C(=O)Nc2cccc(-c3cn4ccccc4n3)c2)cc1`, the EC50 was > 26 µM (inactive).

Turning to `Cc1oc2c(F)c(F)c(F)c(F)c2c1S(=O)(=O)Nc1cccc(C(F)(F)F)c1`, the pEC50 was 5.05.

For orientation: pEC50 means the EC50 on a negative log10 scale, so that one unit is a factor of ten. What is called EC50 is the concentration giving half of the maximal effect.

Values taken from PubChem BioAssay AID434938 (Broad Institute, 2010).
